What all share (assay type): in vivo
Assay [1] has as its system barnyardgrass (Echinochloa crusgalli). Put plainly: Example 10, Procedure II: Herbicide No. 1 + propachlor (No. 5) with antidotes. On the procedure: (§1) Containers were filled and compacted with a fumigated silt loam top soil to a depth of about 1.3 cm from the top of the container. A first container was designated as an untreated control, a second container was designated as a herbicide control, and a third container was designated as a herbicide + antidote test container. Each of the containers was seeded with a crop species. A measured amount of herbicide dispersed or dissolved in acetone was applied to a measured quantity of soil. To this same quantity of soil treated with herbicide, there was added a measured amount of antidote dispersed or dissolved in acetone. The quantity of soil treated with the herbicide and antidote was thoroughly mixed to incorporate the herbicide and antidote in the soil uniformly. The seed bed in the third container of soil was covered with the soil treated with the herbicide and antidote and the container was leveled. For each test series, the seed beds of the first and second containers were likewise covered by soil layers. the cover layer of the first container was not treated with herbicide or antidote.
(§2) The containers were then placed on a bench in a greenhouse and sub-irrigated as required for the duration of the test. […] Plant response is measured in terms of percent injury. Antidote efficacy is indicated as the difference in plant injury by the herbicide(s) without the antidote and with the antidote.
(§3) This procedure is the same as Procedure I, but modified in the manner that after incorporation of the chemicals (herbicide and antidote) the containers with the covered seedbed were treated with an initial overhead irrigation equivalent to 0.6 cm rainfall, then subsequently sub-irrigated as required on greenhouse benches.
(§4) In the series of greenhouse tests described below, for routine screening purposes the herbicide/antidote compositions were tested in crop/weed combinations involving corn as the crop and either or both of the weeds barnyardgrass (Echinochloa crusgalli), a monocotyledonous weed, and velvetleaf (Abutilon theophrasti), a dicotyledonous weed. In the tables below, these weeds are indicated by the symbols "BYG" and "VL", respectively.
(§5) In this test, the safening effect of various antidotes on the herbicidal combination of Herbicide No. 1 and another α-chloroacetanilide co-herbicide, propachlor, (Herbicide No. 5) was investigated. Propachlor is the active ingredient in the commercial herbicide RAMROD®. Procedure II was also used in this test as in the preceding example.

Assay [2] has as its system velvetleaf (Abutilon theophrasti). The description is as above. On the procedure: as §1, §2, §3, §4, §5
The subject of assay [3] is corn. Put plainly: Example 22: retest of Example 21 at reduced greenhouse temperatures. The following applies: Table 22. On the procedure:
as §1, §2, §3
(§6) In this example, tests were conducted as in the preceding Examples 18-20, except here the co-herbicidal component was SUTAN® PLUS, a commercial product comprising as the active herbicidal ingredient the compound butylate (Herbicide No. 10) and an antidote […] (Antidote No. 1). Again, the antidotal compounds herein were Nos. 1, 2, 7, 13 and 15. Procedure II was used.
(§7) The experiments in this example were designed as a retest of those described in Example 21 in view of the uncharacteristically poor corn safety and weed control, believed to have resulted from unseasonably high temperatures in the greenhouse. Accordingly, temperatures were reduced for these tests.

The test system of assay [4] is barnyardgrass (Echinochloa crusgalli). The assay is described as above. To be noted: Table 22. The method, then:
as §1, §2, §3, §4, §6, §7

Assay [5] relates to velvetleaf (Abutilon theophrasti). The description is as above. To be noted: Table 22. On the procedure: as §1, §2, §3, §4, §6, §7
[6] abbreviates: Herbicide No.1 0.14 kg/ha + Herbicide No.5 4.48 kg/ha, antidote rate 2.24 kg/ha.
The mark [7] stands for this setting: Herbicide No.1 0.14 kg/ha + Herbicide No.5 4.48 kg/ha, antidote rate 8.96 kg/ha.
[8] abbreviates: Herbicide No.1 0.56 kg/ha + Herbicide No.5 4.48 kg/ha, antidote rate 2.24 kg/ha.
Where [9] appears, read: Herbicide No.1 0.56 kg/ha + Herbicide No.5 4.48 kg/ha, antidote rate 8.96 kg/ha.
Setting [10] is: Herbicide No.1 0.56 Kg/ha + SUTAN + 8.96 Kg/ha + antidote 2.24 Kg/ha.
The mark [11] stands for this setting: Herbicide No.1 0.56 Kg/ha + SUTAN + 8.96 Kg/ha + antidote 8.96 Kg/ha.
[12] abbreviates: Herbicide No.1 1.12 Kg/ha + SUTAN + 8.96 Kg/ha + antidote 2.24 Kg/ha.
Where [13] appears, read: Herbicide No.1 1.12 Kg/ha + SUTAN + 8.96 Kg/ha + antidote 8.96 Kg/ha.

Experimental findings from EP0603240B1, “SAFENING HERBICIDAL PYRAZOLYLSULFONYLUREAS” (priority 1991, dated 1993) are described below.

For `O=C1OC(=O)c2cccc3cccc1c23` [compound 2], the “% Injury BYG” value in assay [1] (setting [6]) stood at 100%; in assay [1] (setting [7]) it was 99%; in assay [1] (setting [8]) it was 99%; in assay [1] (setting [9]), 99%; in assay [4] (setting [10]), 80%; in assay [4] (setting [11]) it was 90%. The entries for the “% Injury BYG” value in assay [4] (setting [12]) and in assay [4] (setting [13]) were 85% and 90%, respectively. Besides, the “% Injury VL” value in assay [2] (setting [6]) was 60%; in assay [2] (setting [7]), 80%; in assay [2] (setting [8]), 75%; in assay [2] (setting [9]), 80%; in assay [5] (setting [10]) it was 80%; in assay [5] (setting [11]) it was 90%. Besides, the figures for the “% Injury VL” value in assay [5] (setting [12]) and in assay [5] (setting [13]) were 93% and 90%, respectively. Moreover, the “% Injury Corn” value in assay [3] (setting [10]) worked out at 45%; in assay [3] (setting [11]) it was 55%; in assay [3] (setting [12]), 40%; in assay [3] (setting [13]), 50%.

For the compound `C=CCN(CC=C)C(=O)C(Cl)Cl` [compound 1], the “% Injury BYG” value in assay [1] (setting [6]) turned out to be 99%; in assay [1] (setting [7]), 99%; in assay [1] (setting [8]), 98%; in assay [1] (setting [9]), 99%; in assay [4] (setting [10]), 93%; in assay [4] (setting [11]), 90%. Besides, the entries for the “% Injury BYG” value in assay [4] (setting [12]) and in assay [4] (setting [13]) were 85% and 90%, respectively. Besides, the “% Injury VL” value is 75% in assay [2] (setting [6]); 70% in assay [2] (setting [7]); 70% in assay [2] (setting [8]); 80% in assay [2] (setting [9]); 80% in assay [5] (setting [10]); 80% in assay [5] (setting [11]). Also, the “% Injury VL” value in assay [5] (setting [12]) and in assay [5] (setting [13]) was 80% throughout. In addition, the “% Injury Corn” value in assay [3] (setting [10]) is listed as 45%; in assay [3] (setting [11]), 60%; in assay [3] (setting [12]), 50%; in assay [3] (setting [13]) it was 55%.

For the compound `CC1(C(Cl)Cl)OCCO1` [compound 13], the “% Injury BYG” value was determined as 98% in assay [1] (setting [6]); 97% in assay [1] (setting [7]); 99% in assay [1] (setting [8]); 98% in assay [1] (setting [9]); 90% in assay [4] (setting [10]); 90% in assay [4] (setting [11]). For the same compound, the “% Injury BYG” value turned out to be 95% in assay [4] (setting [12]) and 93% in assay [4] (setting [13]). In addition, the “% Injury VL” value came out at 70% in assay [2] (setting [6]); 70% in assay [2] (setting [7]); 80% in assay [2] (setting [8]); 75% in assay [2] (setting [9]); 85% in assay [5] (setting [10]); 95% in assay [5] (setting [11]). For the same compound, the “% Injury VL” value in assay [5] (setting [12]) amounted to 95%; in assay [5] (setting [13]), 90%. In addition, the “% Injury Corn” value in assay [3] (setting [10]) is reported as 70%; in assay [3] (setting [11]), 60%; in assay [3] (setting [12]) it was 75%; in assay [3] (setting [13]), 60%.

With `O=C(C(Cl)Cl)N1CCOC12CCCCC2` [compound 7], the “% Injury BYG” value in assay [1] (setting [6]) is reported as 99%; in assay [1] (setting [7]), 98%; in assay [1] (setting [8]), 98%; in assay [1] (setting [9]), 96%; in assay [4] (setting [10]) it was 90%; in assay [4] (setting [11]) it was 90%. The “% Injury BYG” value stood at 95% in assay [4] (setting [12]) and 80% in assay [4] (setting [13]). Also, the “% Injury VL” value in assay [2] (setting [6]) stood at 70%; in assay [2] (setting [7]), 75%; in assay [2] (setting [8]) it was 95%; in assay [2] (setting [9]) it was 80%; in assay [5] (setting [10]), 80%; in assay [5] (setting [11]) it was 75%. Further, the “% Injury VL” value was 97% in assay [5] (setting [12]) and 70% in assay [5] (setting [13]). The “% Injury Corn” value in assay [3] (setting [10]) was found to be 45%; in assay [3] (setting [11]) it was 50%; in assay [3] (setting [12]), 65%; in assay [3] (setting [13]) it was 50%.
